Consider 23 compounds from patent publication US10556866B2, “ROR gamma (RORγ) modulators” (LEAD PHARMA HOLDING B.V., priority 2015, dated 2020).

SMILES strings stand for the structures.

The target in this experiment is T1, RORγ (Homo sapiens, UniProt P51449).
T1 construct: expressed in transfected cells; host or cells: 293FT cells (Invitrogen), expression vector pFN26A (Promega)
T1 sequence (P51449 269-508 limits assumed): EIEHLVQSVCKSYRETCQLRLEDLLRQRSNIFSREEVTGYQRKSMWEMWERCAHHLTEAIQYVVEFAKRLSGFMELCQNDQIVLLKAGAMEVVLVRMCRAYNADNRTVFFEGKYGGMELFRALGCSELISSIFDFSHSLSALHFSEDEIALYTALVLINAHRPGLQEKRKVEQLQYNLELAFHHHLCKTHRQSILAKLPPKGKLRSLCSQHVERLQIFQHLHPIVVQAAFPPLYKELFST
The experiment in a line: RORγ GAL4 reporter gene assay (luciferase readout). Format: cell-based. The settings on record: inhibition of RORγ (GAL4-RORγ-LBD) in 293FT cells, luciferase signal; read-out: mean pIC50 (converted). On the procedure: Example inhibitors 1-38 were tested for their ability to inhibit RORγ activity in a RORγ GAL4 reporter gene assay. The assay procedure and results are described below.
A GAL4 one-hybrid reporter system employing luciferase readout was established to determine inhibition of RORγ in 293FT cells. The RORγ ligand-binding domain (LBD) was fused to the yeast GAL4 DNA binding domain (DBD) and placed under the control of the human cytomegalovirus (CMV) immediate early promoter, using expression vector pFN26A (Promega) and standard recombinant DNA cloning methods. To serve as a control in the assay, a similar vector was generated in which the GAL4-DBD was fused to Herpes simplex virus protein 16 (VP16), a constitutive transcriptional activator.
To monitor the inhibitory effect of compounds on RORγ, a transcriptional reporter construct was used. The pGL4.35 vector (Promega) contains nine copies of the GAL4 Upstream Activator Sequence (UAS). This sequence drives the transcription of the luciferase reporter gene luc2P in response to binding of a fusion protein containing the GAL4 DNA binding domain, as for example expressed by the GAL4-RORγ-LBD and GAL4-VP16 expression vectors described above. To allow a GAL4 fusion protein to drive the expression of the luciferase reporter, the pGL4.35 expression vector and the appropriate GAL4 fusion protein expression vector were bulk transfected in the 293FT cells using standard transfection techniques.
The day after transfection, cells were plated into 96 well plates, test compound was added and the plates were incubated overnight. Subsequently, the firefly luciferase activity was quantified using luciferase detection reagent and luminescence readout.
293FT cells (Invitrogen) were transfected with a GAL4 fusion protein expression vector (as described above) and the transcriptional reporter construct (pGL4.35, Promega). 60 μL of TransIT-293 transfection reagent (Mirus Bio) was added drop wise to 1500 μl Opti-MEM I Reduced Serum Medium (Invitrogen) and incubated at RT (RT) for 5 to 20 minutes. 1500 μL of this reagent mixture was added to 5 μg of GAL4 fusion protein expression vector and 5 μg of the transcriptional reporter construct, and incubated at RT for 20 minutes.
To harvest 293FT cells from a T75 flask, first the culture medium was taken off the cells. Subsequently, the cells were washed with Phosphate Buffered Saline (PBS) (Lonza), after which the PBS was removed. To dissociate the cells, 1 ml of TrypLE Express (Invitrogen) was added to the flask, followed by incubation at RT until the cells visually started to detach. Cells were collected in 5 mL of assay medium (DMEM culture medium (Lonza), 10% dialyzed FBS (Invitrogen) and Pen/Strep (Lonza)) to achieve a single cell suspension. 10×10^6 cells were spun down and re-suspended in 10 mL of assay medium. Subsequently, the cell suspension was added to the transfection mix tube, and then transferred as a whole to a T75 flask (Greiner), followed by overnight (16-24 hours) incubation at 37° C. and 5% CO2.
For compound screening, the cells were harvested (as described above) and counted. 13×10^6 cells were spun down, the supernatant was aspirated and the cells were re-suspended in 17.3 mL of assay medium obtaining a cell suspension of 0.75×10^6 cells/mL. 80 μL of cell suspension (60,000 cells) was plated per well into a white, flat bottom, tissue culture treated, 96 well screening plates (Greiner).
Test compounds were diluted, starting from a 10 mM dimethylsulfoxide (DMSO) stock solution, to serial dilutions in DMSO at 500× the final test concentration. Subsequently, these solutions were diluted to 5× the final test concentration in two 10-fold-dilution steps in assay medium. The final DMSO concentration of the 5× test compound solution was 1%. 20 μL of the 5× test compound solution was added to each test well of the 96 well plate previously plated with 80 μl cell suspension, resulting in the final test concentration with 0.2% DMSO. […]
(In general: A reporter such as luciferase makes a cellular process visible.)
As for `COC(c1ccc(C(=O)NCc2ccc(S(=O)(=O)CC3CC3)cc2)cc1)(C(F)(F)F)C(F)(F)F` [Example 22, N-[[4-(cyclopropylmethylsulfonyl)phenyl]methyl]-4-[2,2,2-trifluoro-1-methoxy-1-(trifluoromethyl)ethyl]benzamide], the IC50 was at most 100 nM.
On to `O=C(NCc1ccc(S(=O)(=O)CC2CC2)cc1)c1ccc(C(OCc2ccccc2)(C(F)(F)F)C(F)(F)F)cc1` [Example 27, 4-[1-benzyloxy-2,2,2-trifluoro-1-(trifluoromethyl)ethyl]-N-[[4-(cyclopropylmethylsulfonyl)phenyl]methyl]benzamide], for which the IC50 is at most 1000 nM.
Turning to `CC(C)C(O)(c1ccc(C(=O)NCc2ccc(S(=O)(=O)CC3CC3)cc2)cc1)C(F)(F)F` (centres unmarked) [Example 10, N-[[4-(cyclopropylmethylsulfonyl)phenyl]methyl]-4-[1-hydroxy-2-methyl-1-(trifluoromethyl)propyl]benzamide], the IC50 is at most 100 nM.
For `Cc1cc(C(O)(c2ccc(C(=O)NCc3ccc(S(=O)(=O)CC4CC4)cc3)cc2)C(C)C)no1` (centres unmarked) [Example 36, N-[[4-(cyclopropylmethylsulfonyl)phenyl]methyl]-4-[1-hydroxy-2-methyl-1-(5-methylisoxazol-3-yl)propyl]benzamide], the IC50 was at most 100 nM.
As for `CCCCC(O)(c1ccc(C(=O)NCc2ccc(S(=O)(=O)NC3CC3)cc2)cc1)C(F)(F)F` (centres unmarked) [Example 20, N-[[4-(cyclopropylsulfamoyl)phenyl]methyl]-4-[1-hydroxy-1-(trifluoromethyl)pentyl]benzamide], the IC50 was at most 1000 nM.
With `CC(C)(C)CC(O)(c1ccc(C(=O)NCc2ccc(S(=O)(=O)CC3CC3)cc2)cc1)C(F)(F)F` (centres unmarked) [Example 9, N-[[4-(cyclopropylmethylsulfonyl)phenyl]methyl]-4-[1-hydroxy-3,3-dimethyl-1-(trifluoromethyl)butyl]benzamide] the figure was at most 100 nM; with `CCS(=O)(=O)c1ccc(CNC(=O)c2ccc(C(O)(CC(C)(C)C)C(F)(F)F)cc2)cc1` (centres unmarked) [Example 18, N-[(4-ethylsulfonylphenyl)methyl]-4-[1-hydroxy-3,3-dimethyl-1-(trifluoromethyl)butyl]benzamide], at most 1000 nM; with `Cc1cc(C(O)(c2ccc(C(=O)NCc3ccc(S(=O)(=O)CC4CC4)cc3)cc2)C(C)(C)C)no1` (centres unmarked) [Example 38, N-[(4-(cyclopropylmethylsulfonyl)phenyl)methyl]-4-[1-hydroxy-2,2-dimethyl-1-(5-methylisoxazol-3-yl)propyl]benzamide], at most 100 nM.
Next, `O=C(NCc1ccc(S(=O)(=O)CC2CC2)cc1)c1ccc(C(O)(C(F)(F)F)C(F)(F)F)cc1` [Example 4, N-[[4-(cyclopropylmethylsulfonyl)phenyl]methyl]-4-[2,2,2-trifluoro-1-hydroxy-1-(trifluoromethyl)ethyl]benzamide]: at most 100 nM; `CCCCOC(c1ccc(C(=O)NCc2ccc(S(=O)(=O)CC3CC3)cc2)cc1)(C(F)(F)F)C(F)(F)F` [Example 25, 4-[1-butoxy-2,2,2-trifluoro-1-(trifluoromethyl)ethyl]-N-[[4-(cyclopropylmethylsulfonyl)phenyl]methyl]benzamide]: at most 100 nM; `O=C(NCc1ccc(S(=O)(=O)CC2CC2)cc1)c1ccc(C(O)(c2ccccc2)C(F)(F)F)cc1` (centres unmarked) [Example 13, N-[[4-(cyclopropylmethylsulfonyl)phenyl]methyl]-4-(2,2,2-trifluoro-1-hydroxy-1-phenyl-ethyl)benzamide]: at most 1000 nM.
In the case of `CCOC(c1ccc(C(=O)NCc2ccc(S(=O)(=O)CC3CC3)cc2C)cc1)(C(F)(F)F)C(F)(F)F` [Example 29, N-[[4-(cyclopropylmethylsulfonyl)-2-methyl-phenyl]methyl]-4-[1-ethoxy-2,2,2-trifluoro-1-(trifluoromethyl)ethyl]benzamide], the IC50 was at most 100 nM.
As for `CC(C)(O)c1ccc(C(=O)NCc2ccc(S(=O)(=O)CC3CC3)cc2)cc1` [Example 3, N-[[4-(cyclopropylmethylsulfonyl)phenyl]methyl]-4-(1-hydroxy-1-methyl-ethyl)benzamide], the IC50 was over 10000 nM.
Next, `O=C(NCc1ccc(S(=O)(=O)CC2CC2)cc1)c1ccc(C(O)(C2CCCC2)C(F)(F)F)cc1` (centres unmarked) [Example 12, 4-(1-cyclopentyl-2,2,2-trifluoro-1-hydroxy-ethyl)-N-[[4-(cyclopropylmethylsulfonyl)phenyl]methyl]benzamide]: at most 100 nM.
Next, `O=C(NCc1ccc(S(=O)(=O)NC2CC2)cc1)c1ccc(C(O)(C(F)(F)F)C(F)(F)F)cc1` [Example 21, N-[[4-(cyclopropylsulfamoyl)phenyl]methyl]-4-[2,2,2-trifluoro-1-hydroxy-1-(trifluoromethyl)ethyl]benzamide]: at most 1000 nM; `CCOC(c1ccc(C(=O)NCc2ccc(S(=O)(=O)CC3CC3)cc2)cc1)(C(F)(F)F)C(F)(F)F` [Example 23, N-[[4-(cyclopropylmethylsulfonyl)phenyl]methyl]-4-[1-ethoxy-2,2,2-trifluoro-1-(trifluoromethyl)ethyl]benzamide]: at most 100 nM; `CCCCC(O)(c1ccc(C(=O)NCc2ccc(S(=O)(=O)CC3CC3)cc2)cc1)C(F)(F)F` (centres unmarked) [Example 7, N-[[4-(cyclopropylmethylsulfonyl)phenyl]methyl]-4-[1-hydroxy-1-(trifluoromethyl)pentyl]benzamide]: at most 100 nM.
With `CCC(O)(c1ccc(C(=O)NCc2ccc(S(=O)(=O)CC3CC3)cc2)cc1)C(F)(F)F` (racemic) [(+)-1, (+)-N-[[4-(cyclopropylmethylsulfonyl)phenyl]methyl]-4-[1-hydroxy-1-(trifluoromethyl)propyl]benzamide] the figure was at most 100 nM; with `COC(c1ccc(C(=O)NCc2ccc(S(=O)(=O)NC3CC3)cc2)cc1)(C(F)(F)F)C(F)(F)F` [Example 30, N-[[4-(cyclopropylsulfamoyl)phenyl]methyl]-4-[2,2,2-trifluoro-1-methoxy-1-(trifluoromethyl)ethyl]benzamide], at most 1000 nM.
In the case of `CCC(O)(c1ccc(C(=O)NCc2ccc(S(=O)(=O)CC3CC3)cc2)cc1)C(F)(F)F` (racemic) [Example 1, N-[[4-(cyclopropylmethylsulfonyl)phenyl]methyl]-4-[1-hydroxy-1-(trifluoromethyl)propyl]benzamide], the IC50 is at most 100 nM.
With `C[C@H](NC(=O)c1ccc(C(O)(C(F)(F)F)C(F)(F)F)cc1)c1ccc(S(=O)(=O)CC2CC2)cc1` [Example 35, N-[(1S)-1-[4-(cyclopropylmethylsulfonyl)phenyl]ethyl]-4-[2,2,2-trifluoro-1-hydroxy-1-(trifluoromethyl)ethyl]benzamide], the IC50 is at most 1000 nM.
With `CCCOC(c1ccc(C(=O)NCc2ccc(S(=O)(=O)CC3CC3)cc2)cc1)(C(F)(F)F)C(F)(F)F` [Example 24, N-[[4-(cyclopropylmethylsulfonyl)phenyl]methyl]-4-[2,2,2-trifluoro-1-propoxy-1-(trifluoromethyl)ethyl]benzamide] the figure was at most 100 nM.
Next, `O=C(NCc1ccc(S(=O)(=O)CC2CC2)cc1)c1ccc(C(O)(Cc2ccccc2)C(F)(F)F)cc1` (centres unmarked) [Example 14, 4-(1-benzyl-2,2,2-trifluoro-1-hydroxy-ethyl)-N-[[4-(cyclopropylmethylsulfonyl)phenyl]methyl]benzamide]: at most 100 nM.
